Measurements reported in patent publication US20250332149A1, “PIPERIDINE COMPOUNDS AND PHARMACEUTICAL COMPOSITIONS” (Lumos Pharma, Inc., priority 2024, published 2025).
Read-outs that look alike come from different tables or passages of the source.

Experiment: Phase 1 study Part 2: food effect on plasma PK of LUM-201 capsule
Format: in vivo, human
Settings: for % AUCex, Arithmetic Mean / % AUCex, Geometric Mean / Clast, Arithmetic Mean / Clast, Geometric Mean / tlag, Median / tlast, Median / λz, Arithmetic Mean / λz, Geometric Mean / AUC(0-inf) / AUC(0-t) / Cmax / half-life / Tmax: oral; for AUC(0-inf) / AUC(0-t) / Cmax / half-life / Tmax: human, plasma, po, 85.3 mg; for Tmax: read-out: tmax, Median
Source text: This was a single center, open-label, randomized, Phase 1 study in healthy adult subjects. This study consisted of 2 parts: Part 1 was a 4-sequence, 4-treatment, 4 Treatment Periods, crossover study to determine the relative bioavailability of current tablets to new capsule formulations of LUM-201; Part 2 was a 2-sequence, 2-treatment, 2 Treatment Periods, crossover study to evaluate the food effect on the bioavailability of the new capsule formulation of LUM-201. An individual subject was allowed to participate in only 1 part (Part 1 or Part 2) of the study. Forty subjects were planned and enrolled in this study. • Part 1: A total of 28 subjects were planned and enrolled in Part 1. Part 1 consisted of 4 sequences, each having 4 Treatment Periods enrolling 7 subjects (1:1:1:1 ratio). During Treatment Periods 1 through 4, each subject received 4 single oral doses of LUM-201 drug product in a randomized, crossover order. • Part 2: A total of 12 subjects were planned and enrolled in Part 2. Part 2 consisted of 2 sequences, each having 2 Treatment Periods enrolling 6 subjects (1:1 ratio). Each subject received a single oral dose of LUM-201 at each Treatment Period. During Treatment Periods 1 and 2, each subject received 2 single oral doses of LUM-201 in a randomized, crossover order. • On Day 1 of Treatment Period 1, subjects were administered the assigned treatment (A or B) as randomized, followed by a washout of at least 3 days between Treatment Periods 1 and 2. Subjects stayed in-house (not discharged) between the Treatment Periods. • Treatment A was dosed at 85.3 mg capsule formulation of LUM-201 (intact capsule consumed unopened) consumed while subject was in a fasted state with 240 mL of water. • Treatment B was dosed at 85.3 mg capsule formulation of LUM-201 (intact capsule consumed unopened) consumed 30 minutes after start of a high-fat meal with 240 mL of water. • Subjects were discharged from the study center on the morning of Day 3 of Treatment Period 2 after the scheduled study assessments had been completed.
Fasted Treatment Period (Treatments A): Each subject received a single dose of LUM-201 in the morning of Day 1 after an overnight fast of at least 10 hours.
Treatment A was dosed at 85.3 mg capsule formulation of LUM-201 (intact capsule consumed unopened) consumed while subject was in a fasted state with 240 mL of water.
Fed Treatment Period (Treatment B): On the morning of Day 1, following an overnight fast of at least 10 hours, a high-fat breakfast (approximately 800 to 1000 calories) was served approximately 30 minutes before the planned dosing time. Subjects were required to eat the entire breakfast in less than 30 minutes.
Treatment B was dosed at 85.3 mg capsule formulation of LUM-201 (intact capsule consumed unopened) consumed 30 minutes after the start of the high-fat breakfast with 240 mL of water according to the FDA Guidance 20225. […]

[1] = 85.3 mg capsule with food vs fasted, statistically significant
[2] = Part 2, Treatment A: 85.3 mg capsule, fasted
[3] = Part 2, Treatment B: 85.3 mg capsule, 30 minutes after start of high-fat meal

food effect on tmax (85.3 mg capsule with food vs fasted): no significant effect
increase of AUC0-inf with food [1]: 17.8%
increase of AUC0-last with food [1]: 17.8%
increase of Cmax with food [1]: 64.4%
% AUCex, Arithmetic Mean [2]: 1.868%
% AUCex, Geometric Mean [2]: 1.689%
Clast, Arithmetic Mean [2]: 0.7762 ng/mL
Clast, Geometric Mean [2]: 0.7216 ng/mL
tlag, Median [2]: 0.2489 h
tlast, Median [2]: 48.03 h
λz, Arithmetic Mean [2]: 0.0874 h⁻¹
λz, Geometric Mean [2]: 0.0848 h⁻¹
% AUCex, Arithmetic Mean [3]: 2.081%
% AUCex, Geometric Mean [3]: 1.845%
Clast, Arithmetic Mean [3]: 0.9223 ng/mL
Clast, Geometric Mean [3]: 0.8783 ng/mL
tlag, Median [3]: 0.2906 h
tlast, Median [3]: 48.00 h
λz, Arithmetic Mean [3]: 0.0829 h⁻¹
λz, Geometric Mean [3]: 0.0803 h⁻¹
AUC(0-inf) (Part 2, Treatment A: 85.3 mg capsule, fasted, read-out: AUC0-inf, Arithmetic Mean): 538 ng·h/mL
AUC(0-inf) (Part 2, Treatment A: 85.3 mg capsule, fasted, read-out: AUC0-inf, Geometric Mean): 504 ng·h/mL
AUC(0-t) (Part 2, Treatment A: 85.3 mg capsule, fasted, read-out: AUC0-last, Arithmetic Mean): 528 ng·h/mL
AUC(0-t) (Part 2, Treatment A: 85.3 mg capsule, fasted, read-out: AUC0-last, Geometric Mean): 494 ng·h/mL
Cmax (Part 2, Treatment A: 85.3 mg capsule, fasted, read-out: Cmax, Arithmetic Mean): 87.3 ng/mL
Cmax (Part 2, Treatment A: 85.3 mg capsule, fasted, read-out: Cmax, Geometric Mean): 80.5 ng/mL
half-life (Part 2, Treatment A: 85.3 mg capsule, fasted, read-out: t1/2, Arithmetic Mean (converted)): 8.39 h
half-life (Part 2, Treatment A: 85.3 mg capsule, fasted, read-out: t1/2, Geometric Mean (converted)): 8.17 h
Tmax [2]: 1.53 h
AUC(0-inf) (Part 2, Treatment B: 85.3 mg capsule, 30 minutes after start of high-fat meal, read-out: AUC0-inf, Arithmetic Mean): 626 ng·h/mL
AUC(0-inf) (Part 2, Treatment B: 85.3 mg capsule, 30 minutes after start of high-fat meal, read-out: AUC0-inf, Geometric Mean): 591 ng·h/mL
AUC(0-t) (Part 2, Treatment B: 85.3 mg capsule, 30 minutes after start of high-fat meal, read-out: AUC0-last, Arithmetic Mean): 614 ng·h/mL
AUC(0-t) (Part 2, Treatment B: 85.3 mg capsule, 30 minutes after start of high-fat meal, read-out: AUC0-last, Geometric Mean): 579 ng·h/mL
Cmax (Part 2, Treatment B: 85.3 mg capsule, 30 minutes after start of high-fat meal, read-out: Cmax, Arithmetic Mean): 151 ng/mL
Cmax (Part 2, Treatment B: 85.3 mg capsule, 30 minutes after start of high-fat meal, read-out: Cmax, Geometric Mean): 134 ng/mL
half-life (Part 2, Treatment B: 85.3 mg capsule, 30 minutes after start of high-fat meal, read-out: t1/2, Arithmetic Mean (converted)): 8.87 h
half-life (Part 2, Treatment B: 85.3 mg capsule, 30 minutes after start of high-fat meal, read-out: t1/2, Geometric Mean (converted)): 8.61 h
Tmax [3]: 1.5 h
Structure (SMILES): CC(C)(N)C(=O)N[C@H](COCc1ccccc1)C(=O)N1CCC2(CC1)CN(S(C)(=O)=O)c1ccccc12 [LUM-201, N-[1(R)-[(1,2-dihydro-1-methanesulfonylspiro[3H-indole-3,4′-piperdin]-yl)carbonyl]-2-(phenylmethyloxy)ethyl]-2-amino-2-methylpropanamide methanesulfonate]
